In paper PMC11786100, “Chronic GIPR agonism results in pancreatic islet GIPR functional desensitisation” (Molecular Metabolism, 2025):

Assays:
HFD-induced obese mice = test: Chronic GIP108 administration to HFD-induced obese mice; type: in vivo, mouse; conditions: for body weight / food intake: n = 9–10/group
Procedure: In all in vivo studies, mice were randomised by body weight into groups. Mice received a 50 μL subcutaneous injection of saline (0.9% sodium chloride) or peptide at a specified dose, diluted in saline. Peptide dosing was in nmol per kg of total body weight. For the assessment of the chronic effects of GIP108, mice were injected daily for 15 days. Body composition was measured by EchoMRI on day −1 and day 15. An intraperitoneal glucose tolerance test (IPGTT) (2 g/kg) was conducted on day 14, following 6 h of fasting and 2 h after peptide injection. Non-fasting plasma leptin (ab199082, Abcam, UK), adiponectin (ab226900, Abcam, UK) and amino acids (ab65347, Abcam, UK) were measured on day 16. For the assessments of in vivo GIPR desensitisation, mice were injected at 17:00 with vehicle or GIP108 (30 nmol/kg) prior to an acute food intake study/IPGTT/insulin bleeds conducted the following day. Full details of the in vivo studies are provided in the supplementary methods.
HFD-induced obese mice (mean starting weight of 43.4 g) received daily injection of saline, GIP108 (30 nmol/kg) and GIP108 (100 nmol/kg) (n=9-10/group) for 15 days. Mice were injected between 16:00 and 17:00, before the beginning of the natural feeding period. Food intake and body weight were measured daily for the entirety of the study. Fat mass and lean mass were calculated on day -1 and day 15. An intraperitoneal glucose tolerance test (IPGTT) was conducted on day 14. On this day, mice received their daily injection of peptide at midday rather than between 16:00 and 17:00. The mice were culled on day 16 via decapitation to allow for collection of large volumes of blood for plasma analysis.
Mice were fasted at 08:00. For all studies, 20% glucose was administered at 14:00, with the injection volume adjusted to the body weight of the mouse such that each mouse received glucose at 2 g/kg. To assess effects of GIP108 on day 14 of the chronic study, mice were dosed with saline or GIP108 at a specified dose at 12:00. […] Blood glucose measurements were taken via tail vein venesection at baseline, t=15, t=30, t=60, t=90 and t=120 mins. Glucose AUC is calculated using y=0. Glucose readings were measured in mmol/L using the same GlucoRx glucometer.
Body composition was measured using an EchoMRI^TM machine. This allows for the measurement of lean mass, fat mass and water mass. The mass was recorded in grams. Mice were restrained in a red Perspex tube which was then inserted into the EchoMRI^TM machine. Each scan took 160 seconds. The tube was cleaned between animals to minimise stress.
Leptin, adiponectin and amino acids were quantified following chronic GIP108 administration. Plasma amino acids were measured using the Abcam L-amino acid assay kit (ab65347, Abcam, UK). Plasma adiponectin was measured using the Abcam mouse adiponectin ELISA kit (ab226900, Abcam, UK). Plasma leptin was measured using the Abcam mouse leptin ELISA kit (ab199082, Abcam, UK). All assays were performed according to the manufacturer’s protocol and were read using the SpectraMax i3x Microplate Reader (Molecular Devices, US).

SNAP-tagged human GIPR = molecular target: T1, SNAP-tagged human GIPR (Homo sapiens, UniProt P48546); test: Internalisation and receptor surface expression assays in AD-293 cells; type: cell-based; conditions: 1 μM
T1 construct: host or cells: AD-293
T1 sequence (P48546 22-466): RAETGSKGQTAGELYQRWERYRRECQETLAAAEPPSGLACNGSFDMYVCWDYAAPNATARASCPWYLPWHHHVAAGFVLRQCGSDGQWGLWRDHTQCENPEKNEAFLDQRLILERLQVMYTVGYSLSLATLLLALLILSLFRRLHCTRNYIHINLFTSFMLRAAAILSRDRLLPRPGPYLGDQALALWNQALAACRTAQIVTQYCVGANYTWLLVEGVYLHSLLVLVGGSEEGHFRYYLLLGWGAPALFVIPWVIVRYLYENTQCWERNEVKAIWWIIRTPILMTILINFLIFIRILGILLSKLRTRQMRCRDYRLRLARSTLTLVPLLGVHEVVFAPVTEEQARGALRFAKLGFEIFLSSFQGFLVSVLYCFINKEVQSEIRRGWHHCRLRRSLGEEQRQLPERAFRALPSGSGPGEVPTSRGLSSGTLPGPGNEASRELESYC
Procedure: AD-293 cells were transfected with desired plasmid DNA encoding a SNAP-tagged G-protein coupled receptor (GPCR) 24 h prior to assay. For 1 h internalisation assays, cells were labelled for 10 min with cleavable SNAP-tag probe BG-S-S-649 (New England BioLabs, US). Following 1 h treatment with specified peptide, cells were imaged at baseline and after addition of 2-mercaptoethane sulfonate (Mesna). For 4-hour GPCR surface expression assays, cells were treated with the specified peptide for 4 h, prior to 10-minute labelling with BG-S-S-649 and imaging.
AD-293 cells were added to a 96-well plate and maintained in 200 μl complete DMEM. […]
For 1 hour internalisation assays, cells were labelled with cleavable SNAP-tag probe BG-S-S-649 (New England BioLabs, US) in complete DMEM for 10 minutes prior to washing and 1 hour treatment with specified peptide, reconstituted in DMEM + 0.1% BSA. […] GPCR internalisation was quantified as the cell fluorescence following Mesna addition (representing internalised GPCR), corrected for the baseline cell fluorescence (representing total cellular GPCR).
For 4-hour GPCR surface expression assays, cells were treated with specified peptide for 4 hours in complete DMEM prior to labelling with BG-S-S-649. […] GPCR surface expression following peptide treatment was quantified as cell fluorescence as a percentage of cell fluorescence following vehicle treatment.

[1] = 30 nmol/kg daily s.c. over two weeks
[2] = 100 nmol/kg daily s.c. over two weeks, EchoMRI
[3] = 100 nmol/kg daily s.c. over two weeks
[4] = 30 or 100 nmol/kg daily s.c., fed state 16 h after last injection

CC[C@H](C)[C@H](NC(=O)[C@H](CO)NC(=O)[C@H](Cc1ccc(O)cc1)NC(=O)[C@H](CC(=O)O)NC(=O)[C@H](CO)NC(=O)[C@@H](NC(=O)[C@H](Cc1ccccc1)NC(=O)[C@@H](NC(=O)CNC(=O)[C@H](CCC(=O)O)NC(=O)C(C)(C)NC(=O)[C@@H](N)Cc1ccc(O)cc1)[C@@H](C)O)[C@@H](C)CC)C(=O)N[C@@H](C)C(=O)N[C@@H](CC(C)C)C(=O)N[C@@H](CC(=O)O)C(=O)N[C@@H](CCCCN)C(=O)N[C@H](C(=O)N[C@@H](Cc1c[nH]cn1)C(=O)N[C@@H](CCC(N)=O)C(=O)N[C@@H](CCC(N)=O)C(=O)N[C@@H](CC(=O)O)C(=O)N[C@@H](Cc1ccccc1)C(=O)N[C@H](C(=O)N[C@@H](CC(N)=O)C(=O)N[C@@H](Cc1c[nH]c2ccccc12)C(=O)N[C@@H](CC(C)C)C(=O)N[C@@H](CC(C)C)C(=O)N[C@@H](C)C(=O)N[C@@H](CCC(N)=O)C(=O)N[C@@H](CCCCN)C(=O)NCC(=O)N[C@@H](CCCCNC(=O)CC[C@H](NC(=O)CCCCCCCCCCCCCCCCCCC(=O)O)C(=O)O)C(=O)N[C@@H](CCCCN)C(=O)N[C@@H](CC(N)=O)C(=O)N[C@@H](CC(=O)O)C(=O)N[C@@H](Cc1c[nH]c2ccccc12)C(=O)N[C@@H](CCCCN)C(=O)N[C@@H](Cc1c[nH]cn1)C(=O)N[C@@H](CC(N)=O)C(=O)N[C@H](C(=O)N[C@H](C(=O)N[C@@H](CCC(N)=O)C(=O)O)[C@@H](C)O)[C@@H](C)CC)C(C)C)[C@@H](C)CC [GIP108]
fat mass (HFD-induced obese mice; 30 nmol/kg daily s.c. over two weeks, EchoMRI): not 30 nmol/kg | body weight (HFD-induced obese mice; [1]): had no effect on body weight | food intake (HFD-induced obese mice; [1]): not 30 nmol/kg | fat mass (HFD-induced obese mice; [2]): significantly lowered | lean mass (HFD-induced obese mice; [2]): without reductions in lean mass | body weight (HFD-induced obese mice; [3]): significantly lowered | food intake (HFD-induced obese mice; [3]): significantly lowered | intraperitoneal glucose tolerance (HFD-induced obese mice; 30 and 100 nmol/kg daily s.c., IPGTT 2 g/kg on day 14, 2 h after injection): dose-dependent improvement | fasting glucose (HFD-induced obese mice; 30 and 100 nmol/kg daily s.c., day 14, 2 h after injection): dose-dependent improvement | plasma adiponectin (HFD-induced obese mice; [4]): increased plasma adiponectin | plasma amino acid levels (HFD-induced obese mice; [4]): had no impact | plasma leptin (HFD-induced obese mice; [4]): reduced plasma leptin | receptor internalisation compared to vehicle (SNAP-tagged human GIPR; 1-hour treatment, BG-S-S-649/Mesna, n = 3–4): increased human GIPR internalisation | residual receptor detectable at the cell surface (SNAP-tagged human GIPR; 4 h treatment, post-stimulation labelling, n = 7–8): reduction in residual human GIPR
